Patent publication US20080031982A1 (Metaproteomics, LLC, priority 2006, published 2008)

Legend:
Experiment in all cases: KinaseProfiler Assay
PKBα = PKBα (Homo sapiens, UniProt P31749)
TrkA = TrkA (Homo sapiens, UniProt P04629)
CK1γ1 = CK1γ1 (Homo sapiens, UniProt Q9HCP0)
CDK9/cyclin T1 = CDK9/cyclin T1 (Homo sapiens, UniProt P50750)
TrkB = TrkB (Homo sapiens, UniProt Q16620)
EphA8 = molecular target: T1, EphA8 (Homo sapiens, UniProt P29322)
T1 sequence (P29322 28-1005): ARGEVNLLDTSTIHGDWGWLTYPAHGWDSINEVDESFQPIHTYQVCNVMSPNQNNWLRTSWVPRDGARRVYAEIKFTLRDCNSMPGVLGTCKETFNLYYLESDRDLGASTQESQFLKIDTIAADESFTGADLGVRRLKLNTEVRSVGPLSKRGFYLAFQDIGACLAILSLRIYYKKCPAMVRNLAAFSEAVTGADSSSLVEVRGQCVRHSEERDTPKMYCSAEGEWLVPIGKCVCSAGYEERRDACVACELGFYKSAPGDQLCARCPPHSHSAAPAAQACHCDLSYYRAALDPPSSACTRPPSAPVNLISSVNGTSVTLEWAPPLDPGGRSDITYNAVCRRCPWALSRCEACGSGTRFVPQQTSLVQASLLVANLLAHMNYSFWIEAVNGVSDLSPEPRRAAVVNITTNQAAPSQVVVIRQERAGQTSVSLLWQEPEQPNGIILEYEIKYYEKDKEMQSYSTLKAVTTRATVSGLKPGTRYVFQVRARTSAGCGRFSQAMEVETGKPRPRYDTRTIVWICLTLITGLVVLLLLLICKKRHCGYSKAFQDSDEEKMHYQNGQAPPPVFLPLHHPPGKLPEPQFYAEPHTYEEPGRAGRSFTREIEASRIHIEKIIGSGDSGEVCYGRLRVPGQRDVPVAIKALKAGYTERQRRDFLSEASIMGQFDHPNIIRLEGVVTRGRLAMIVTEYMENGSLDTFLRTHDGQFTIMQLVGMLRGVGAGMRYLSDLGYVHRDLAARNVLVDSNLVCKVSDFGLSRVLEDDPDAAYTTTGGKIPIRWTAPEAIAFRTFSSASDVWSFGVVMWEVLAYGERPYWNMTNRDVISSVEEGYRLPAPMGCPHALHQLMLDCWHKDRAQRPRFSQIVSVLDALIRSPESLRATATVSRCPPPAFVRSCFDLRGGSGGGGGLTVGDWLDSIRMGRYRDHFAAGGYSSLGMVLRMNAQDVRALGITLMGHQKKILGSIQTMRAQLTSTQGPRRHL

MAPKAP-K2 = MAPKAP-K2 (Homo sapiens, UniProt P49137)
Chain of MAPKAP-K2 (P49137 whole entry): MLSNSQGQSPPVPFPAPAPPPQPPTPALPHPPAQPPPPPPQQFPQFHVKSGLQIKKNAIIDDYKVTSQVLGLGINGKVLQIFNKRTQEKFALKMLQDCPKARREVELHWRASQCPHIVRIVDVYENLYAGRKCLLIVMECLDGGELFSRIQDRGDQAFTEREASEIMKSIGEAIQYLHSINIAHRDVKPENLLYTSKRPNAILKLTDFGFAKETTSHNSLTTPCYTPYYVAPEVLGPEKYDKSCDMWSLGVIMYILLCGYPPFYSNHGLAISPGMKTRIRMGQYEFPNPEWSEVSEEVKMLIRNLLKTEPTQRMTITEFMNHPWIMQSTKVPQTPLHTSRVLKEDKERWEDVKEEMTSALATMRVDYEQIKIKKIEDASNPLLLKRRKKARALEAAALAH

MINK = MINK (Homo sapiens, UniProt Q8N4C8)
Ros = Ros (Homo sapiens, UniProt P08922)
MAPK1 = MAPK1 (Homo sapiens, UniProt P27361)
Chain of MAPK1 (P27361 whole entry): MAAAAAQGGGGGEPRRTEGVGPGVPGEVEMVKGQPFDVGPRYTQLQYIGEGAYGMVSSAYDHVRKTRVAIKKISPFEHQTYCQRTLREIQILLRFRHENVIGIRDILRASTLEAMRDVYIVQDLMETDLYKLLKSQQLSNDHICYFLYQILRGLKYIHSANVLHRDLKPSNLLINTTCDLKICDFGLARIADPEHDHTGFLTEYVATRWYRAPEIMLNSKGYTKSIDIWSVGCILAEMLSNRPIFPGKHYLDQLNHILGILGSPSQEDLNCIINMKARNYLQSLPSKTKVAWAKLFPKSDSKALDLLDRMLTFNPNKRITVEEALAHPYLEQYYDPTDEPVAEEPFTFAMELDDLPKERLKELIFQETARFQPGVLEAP

MSK2 = MSK2 (Homo sapiens, UniProt O75676)
Chain of MSK2 (O75676 whole entry): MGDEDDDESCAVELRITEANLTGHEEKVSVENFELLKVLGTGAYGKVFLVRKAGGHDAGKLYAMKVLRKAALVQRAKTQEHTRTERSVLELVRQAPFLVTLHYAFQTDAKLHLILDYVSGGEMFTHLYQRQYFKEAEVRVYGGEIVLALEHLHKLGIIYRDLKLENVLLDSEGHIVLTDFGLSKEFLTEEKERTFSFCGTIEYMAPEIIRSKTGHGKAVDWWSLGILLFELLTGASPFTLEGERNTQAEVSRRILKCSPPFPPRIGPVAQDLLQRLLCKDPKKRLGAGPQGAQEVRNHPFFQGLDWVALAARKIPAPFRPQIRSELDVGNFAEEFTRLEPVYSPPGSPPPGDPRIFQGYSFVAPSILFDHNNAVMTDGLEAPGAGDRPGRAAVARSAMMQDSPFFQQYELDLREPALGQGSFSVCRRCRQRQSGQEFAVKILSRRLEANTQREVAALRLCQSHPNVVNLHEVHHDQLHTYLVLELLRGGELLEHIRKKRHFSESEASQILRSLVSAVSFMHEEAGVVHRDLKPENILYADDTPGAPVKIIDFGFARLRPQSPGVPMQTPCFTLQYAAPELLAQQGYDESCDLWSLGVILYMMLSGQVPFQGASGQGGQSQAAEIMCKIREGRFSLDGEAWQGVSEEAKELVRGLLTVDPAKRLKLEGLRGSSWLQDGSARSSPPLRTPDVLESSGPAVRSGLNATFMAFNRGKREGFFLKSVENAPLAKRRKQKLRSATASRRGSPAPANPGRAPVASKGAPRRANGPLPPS

PKCα = PKCα (Homo sapiens, UniProt P17252)

Chain of CK1γ1 (Q9HCP0 whole entry): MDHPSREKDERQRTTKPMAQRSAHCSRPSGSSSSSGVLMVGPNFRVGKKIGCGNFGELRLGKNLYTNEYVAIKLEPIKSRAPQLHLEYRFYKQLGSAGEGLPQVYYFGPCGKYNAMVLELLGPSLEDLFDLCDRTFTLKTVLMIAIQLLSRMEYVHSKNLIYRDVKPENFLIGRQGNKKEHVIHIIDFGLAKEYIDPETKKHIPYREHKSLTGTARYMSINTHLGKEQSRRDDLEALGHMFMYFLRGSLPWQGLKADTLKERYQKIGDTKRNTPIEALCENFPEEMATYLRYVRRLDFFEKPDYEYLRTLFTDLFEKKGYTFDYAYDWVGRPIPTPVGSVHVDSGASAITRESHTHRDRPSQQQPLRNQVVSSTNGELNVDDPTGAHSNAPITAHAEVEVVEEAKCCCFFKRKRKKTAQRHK
Chain of PKBα (P31749 whole entry): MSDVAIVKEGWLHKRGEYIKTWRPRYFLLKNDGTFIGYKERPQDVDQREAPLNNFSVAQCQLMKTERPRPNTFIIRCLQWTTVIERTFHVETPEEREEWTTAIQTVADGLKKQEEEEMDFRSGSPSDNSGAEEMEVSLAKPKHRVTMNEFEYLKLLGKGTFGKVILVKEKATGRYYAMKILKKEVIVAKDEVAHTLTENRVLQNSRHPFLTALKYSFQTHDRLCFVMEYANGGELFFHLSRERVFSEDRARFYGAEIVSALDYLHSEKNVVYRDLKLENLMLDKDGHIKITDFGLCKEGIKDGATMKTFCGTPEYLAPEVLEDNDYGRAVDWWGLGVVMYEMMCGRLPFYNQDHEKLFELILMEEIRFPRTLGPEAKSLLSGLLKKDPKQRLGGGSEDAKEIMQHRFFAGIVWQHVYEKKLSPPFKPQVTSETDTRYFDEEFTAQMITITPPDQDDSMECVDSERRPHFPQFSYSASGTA
Chain of CDK9/cyclin T1 (P50750 whole entry): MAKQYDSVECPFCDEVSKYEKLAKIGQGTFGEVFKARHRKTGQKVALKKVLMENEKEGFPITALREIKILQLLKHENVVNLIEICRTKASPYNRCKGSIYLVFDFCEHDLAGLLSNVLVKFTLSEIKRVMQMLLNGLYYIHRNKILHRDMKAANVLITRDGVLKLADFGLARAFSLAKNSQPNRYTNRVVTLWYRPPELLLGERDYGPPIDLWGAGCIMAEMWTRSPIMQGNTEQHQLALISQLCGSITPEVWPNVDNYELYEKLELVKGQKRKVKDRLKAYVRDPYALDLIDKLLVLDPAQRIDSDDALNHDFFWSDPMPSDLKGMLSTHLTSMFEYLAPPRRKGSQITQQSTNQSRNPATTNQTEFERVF
Chain of CDK9/cyclin T1 (O60563 whole entry partner): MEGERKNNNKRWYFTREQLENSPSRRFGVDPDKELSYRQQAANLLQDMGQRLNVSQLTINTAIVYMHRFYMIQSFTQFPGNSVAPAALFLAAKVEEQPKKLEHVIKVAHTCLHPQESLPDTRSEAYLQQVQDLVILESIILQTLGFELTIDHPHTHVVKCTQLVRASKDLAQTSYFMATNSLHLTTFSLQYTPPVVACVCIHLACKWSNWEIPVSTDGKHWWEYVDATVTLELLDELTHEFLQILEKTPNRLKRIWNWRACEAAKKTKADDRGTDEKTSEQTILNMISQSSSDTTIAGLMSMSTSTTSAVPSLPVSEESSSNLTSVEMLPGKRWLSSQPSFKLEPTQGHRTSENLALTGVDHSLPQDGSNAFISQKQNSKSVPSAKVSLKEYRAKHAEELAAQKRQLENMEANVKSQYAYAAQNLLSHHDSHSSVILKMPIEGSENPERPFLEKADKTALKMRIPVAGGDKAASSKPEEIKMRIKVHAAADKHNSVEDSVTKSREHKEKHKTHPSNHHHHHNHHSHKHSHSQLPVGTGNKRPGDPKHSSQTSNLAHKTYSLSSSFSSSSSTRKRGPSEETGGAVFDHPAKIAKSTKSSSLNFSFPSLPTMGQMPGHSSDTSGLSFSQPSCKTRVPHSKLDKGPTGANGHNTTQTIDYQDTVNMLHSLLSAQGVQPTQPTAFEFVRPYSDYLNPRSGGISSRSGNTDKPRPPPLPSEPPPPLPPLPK
Chain of TrkB (Q16620 32-822): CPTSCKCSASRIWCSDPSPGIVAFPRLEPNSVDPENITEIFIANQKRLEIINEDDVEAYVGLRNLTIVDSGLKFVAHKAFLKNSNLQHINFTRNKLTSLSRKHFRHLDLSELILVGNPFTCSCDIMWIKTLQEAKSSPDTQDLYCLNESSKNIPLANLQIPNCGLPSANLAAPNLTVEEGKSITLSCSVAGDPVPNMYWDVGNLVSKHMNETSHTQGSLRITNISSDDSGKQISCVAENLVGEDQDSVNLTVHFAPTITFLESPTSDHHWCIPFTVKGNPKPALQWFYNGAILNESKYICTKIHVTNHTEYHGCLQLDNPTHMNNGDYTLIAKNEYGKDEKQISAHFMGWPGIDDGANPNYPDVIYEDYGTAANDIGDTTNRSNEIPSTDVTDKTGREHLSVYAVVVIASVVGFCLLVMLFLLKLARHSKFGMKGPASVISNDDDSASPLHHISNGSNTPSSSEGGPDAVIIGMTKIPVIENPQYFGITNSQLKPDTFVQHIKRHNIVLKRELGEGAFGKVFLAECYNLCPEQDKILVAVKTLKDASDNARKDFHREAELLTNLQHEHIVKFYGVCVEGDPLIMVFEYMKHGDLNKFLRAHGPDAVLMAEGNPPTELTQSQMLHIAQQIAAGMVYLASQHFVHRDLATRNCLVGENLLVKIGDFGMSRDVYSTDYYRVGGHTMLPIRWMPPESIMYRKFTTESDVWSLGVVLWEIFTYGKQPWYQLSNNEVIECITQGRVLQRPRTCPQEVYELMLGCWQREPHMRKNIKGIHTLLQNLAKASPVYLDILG

For `COc1cc(O)c(CC=C(C)C)c(O)c1C(=O)/C=C/c1ccc(O)cc1` [Xanthohumol, xanthohumol], the “Kinase activity, % of Control” value (PKBα; 1 ug/ml) was 102 % of Control, the “Kinase activity, % of Control” value (PKBα; 25 ug/ml) was 18 % of Control and the “Kinase activity, % of Control” value (PKBα; 50 ug/ml) was 5 % of Control. For the same compound, the “Kinase activity, % of Control” value (TrkA; 1 ug/ml) was 36 % of Control, the “Kinase activity, % of Control” value (TrkA; 5 ug/ml) was 19 % of Control and the “Kinase activity, % of Control” value (TrkA; 25 ug/ml) was 8 % of Control. The “Kinase activity, % of Control” value (TrkA; 50 ug/ml) was 3 % of Control, the “Kinase activity, % of Control” value (CK1γ1; 1 ug/ml) was 101 % of Control and the “Kinase activity, % of Control” value (CK1γ1; 5 ug/ml) was 79 % of Control. For the same compound, the “Kinase activity, % of Control” value (CK1γ1; 25 ug/ml) was 50 % of Control, the “Kinase activity, % of Control” value (CK1γ1; 50 ug/ml) was 26 % of Control and the “Kinase activity, % of Control” value (CDK9/cyclin T1; 1 ug/ml) was 110 % of Control. The “Kinase activity, % of Control” value (CDK9/cyclin T1; 5 ug/ml) was 107 % of Control, the “Kinase activity, % of Control” value (CDK9/cyclin T1; 25 ug/ml) was 45 % of Control and the “Kinase activity, % of Control” value (CDK9/cyclin T1; 50 ug/ml) was 31 % of Control. For the same compound, the “Kinase activity, % of Control” value (TrkB; 1 ug/ml) was 95 % of Control, the “Kinase activity, % of Control” value (TrkB; 5 ug/ml) was 89 % of Control and the “Kinase activity, % of Control” value (TrkB; 25 ug/ml) was 58 % of Control. For the same compound, the “Kinase activity, % of Control” value (TrkB; 50 ug/ml) was 3 % of Control, the “Kinase activity, % of Control” value (EphA8; 1 ug/ml) was 103 % of Control and the “Kinase activity, % of Control” value (EphA8; 5 ug/ml) was 92 % of Control. For the same compound, the “Kinase activity, % of Control” value (EphA8; 25 ug/ml) was 29 % of Control, the “Kinase activity, % of Control” value (EphA8; 50 ug/ml) was 19 % of Control and the “Kinase activity, % of Control” value (MAPKAP-K2; 1 ug/ml) was 99 % of Control. The “Kinase activity, % of Control” value (MAPKAP-K2; 5 ug/ml) was 95 % of Control, the “Kinase activity, % of Control” value (MAPKAP-K2; 25 ug/ml) was 6 % of Control and the “Kinase activity, % of Control” value (MAPKAP-K2; 50 ug/ml) was 8 % of Control. For the same compound, the “Kinase activity, % of Control” value (MINK; 1 ug/ml) was 42 % of Control, the “Kinase activity, % of Control” value (MINK; 5 ug/ml) was 10 % of Control and the “Kinase activity, % of Control” value (MINK; 25 ug/ml) was 5 % of Control. The “Kinase activity, % of Control” value (MINK; 50 ug/ml) was 7 % of Control, the “Kinase activity, % of Control” value (Ros; 1 ug/ml) was 101 % of Control and the “Kinase activity, % of Control” value (Ros; 5 ug/ml) was 99 % of Control. The “Kinase activity, % of Control” value (Ros; 25 ug/ml) was 85 % of Control, the “Kinase activity, % of Control” value (Ros; 50 ug/ml) was 94 % of Control and the “Kinase activity, % of Control” value (MAPK1; 5 ug/ml) was 64 % of Control. For the same compound, the “Kinase activity, % of Control” value (MAPK1; 25 ug/ml) was 19 % of Control, the “Kinase activity, % of Control” value (MAPK1; 50 ug/ml) was 17 % of Control and the “Kinase activity, % of Control” value (MSK2; 1 ug/ml) was 126 % of Control. For the same compound, the “Kinase activity, % of Control” value (MSK2; 5 ug/ml) was 61 % of Control, the “Kinase activity, % of Control” value (MSK2; 25 ug/ml) was 8 % of Control and the “Kinase activity, % of Control” value (MSK2; 50 ug/ml) was 19 % of Control. The “Kinase activity, % of Control” value (PKCα; 1 ug/ml) was 100 % of Control, the “Kinase activity, % of Control” value (PKCα; 5 ug/ml) was 100 % of Control and the “Kinase activity, % of Control” value (PKCα; 50 ug/ml) was 83 % of Control.
